In patent US20220295849A1, “Steviol Glycoside Compositions for Oral Ingestion or Use” (CARGILL, Incorporated, priority 2016, published 2022):

Key:
[1] = Sensory evaluation (tasting) of glycoside solutions in reverse osmosis water, Test A and Test B; format: in vivo; conditions: for summary of sensory evaluation: summary of Example 5
Procedure: (§1) Glycoside samples (SG101-104) were isolated and purified from fermentation broth, purified Rebs A, B, and D are of leaf origin and Reb M is chemically synthesized. All samples were dissolved in reverse osmosis water at the concentrations indicated. Unsweetened black tea was used in one set of experiments. Approximately 2-3 milliliters of each solution was tasted and sensory evaluations conducted by two individuals. In one set of experiments a third individual also tasted.

[2] = Sensory evaluation (tasting) of glycoside solutions in unsweetened black tea, Test A; format: in vivo
Procedure: as §1

[3] = Sucrose equivalent value (SEV) in citric acid buffer; format: in vivo; conditions: for Sucrose equivalent value / relative sweetness scale-sucrose = 1: 250 ppm in citric buffer, pH = 3.0; for SEV: citric acid buffer at pH=3.0
Source text: Sweetness may be determined by measuring sucrose equivalent values (SEV) using methods and processes well known to those skilled in the art. For example, SEV may be determined by measuring sweetness equivalence to a reference sucrose solution. Typically, taste panelists are trained to detect and scale sweetness of reference sucrose solutions containing between 10 g to 150 g/kg sucrose. A sweetener composition containing one or more glycosides are then tasted at a series of dilutions to determine the concentration of the sweetener composition that is as sweet as a given sucrose reference. For example, if a sweetener composition is as sweet as 50 g/kg of sucrose solution in a citric acid buffer at pH 3.1, then the sweetener composition is assigned a SEV of 5.
For example, SEVs for SG101 and SG102 at 200 ppm are 0.6 and 1.0, respectively; SEV=1.6 for SG101 at 500 ppm and SEV=1.2 at 400 ppm; and SEV=1.5 for SG102 at 400 ppm (as measured in a citric acid buffer at pH=3.0). Thus, at ppm<500, SG101 may be employed as a sensory modifier, and at ppm<400, SG102 may be employed as a sensory modifier in a beverage.

[4] = Instantaneous solubility in deionized water at room temperature; format: physicochemical; conditions: for instantaneous solubility: water
Source text: The composition can optionally be expressed in terms of the concentration of one or more steviol glycoside(s). Beneficially, it has been founds that compound(s) SG101-104 can improve solubility of steviol glycosides in an aqueous solution, and therefore compositions can be prepared having a greater concentration of steviol glycosides in solution. […] Clear solutions without precipitates are considered soluble. Unless indicated otherwise herein, the term “solubility” refers to “equilibrium solubility.”
Instantaneous solubility is determined by mixing steviol glycoside with deionized water vigorously for 10 minutes at room temperature. […] Clear solutions without precipitates are considered soluble.

[5] = Equilibrium solubility (80° C. for 15 minutes, cooled to room temperature, observed up to 4 days); format: physicochemical; conditions: for equilibrium solubility (soluble/insoluble): 80° C. 15 minutes, then room temperature up to 4 days; for equilibrium solubility: heated to 80° C. for 15 minutes, room temperature, at least 4 days
Source text: The composition can optionally be expressed in terms of the concentration of one or more steviol glycoside(s). Beneficially, it has been founds that compound(s) SG101-104 can improve solubility of steviol glycosides in an aqueous solution, and therefore compositions can be prepared having a greater concentration of steviol glycosides in solution. […] Clear solutions without precipitates are considered soluble. Unless indicated otherwise herein, the term “solubility” refers to “equilibrium solubility.” […]

[6] = literature; cited from earlier work
[7] = literature; cited from earlier work; remark: listed apart in the source
[8] = Test A, 200 ppm in water, three experienced taste testers
[9] = SG compound alone in tea, about 200 ppm (Table 7)

## C=C1C[C@@]23CCC4[C@](C)(C(=O)OC5OC(CO)C(O)C(O)C5OC5OC(CO)C(O)C(O)C5O)CCC[C@@]4(C)[C@@H]2CCC1(OC1OC(CO)C(O)C(OC2OC(COC4OC(CO)C(O)C(O)C4O)C(O)C(O)C2O)C1OC1OC(CO)C(O)C(O)C1O)C3 (stereo partly drawn) [SG103]
[1]; [8]
  sensory comments: as sweet or sweeter than 200 ppm Reb M, more sucrosey, sugary quality characteristics (high fructose corn syrup (HFCS), cotton candy notes) are reminiscent of Reb M at 400 ppm but not as sweet, “fuller” feeling
[1]
  summary of sensory evaluation: good sole sweeteners
[2]; [9]
  sensory comments: Slower onset than Reb M by itself, not as sweet as Reb M, slightly more licorice aftertaste
[3]
  Sucrose equivalent value: 4.8
  relative sweetness scale-sucrose = 1: 192X

## C=C1C[C@@]23CCC4[C@](C)(C(=O)OC5OC(CO)C(O)C(OC6OC(CO)C(O)C(O)C6O)C5OC5OC(CO)C(O)C(O)C5O)CCC[C@@]4(C)[C@@H]2CCC1(OC1OC(COC2OC(CO)C(O)C(O)C2O)C(O)C(OC2OC(CO)C(O)C(O)C2O)C1OC1OC(CO)C(O)C(O)C1O)C3 (stereo partly drawn) [SG102]
[1]; [8]
  sensory comments: a bit sweeter than 1-1, sweetness does have quick onset
[1]
  summary of sensory evaluation: less sweet than SG103 and SG104
[2]; [9]
  sensory comments: Not sweet, slightly less astringent, some additional roundedness
[3]; 200 ppm
  SEV: 1.0
[3]; 400 ppm
  SEV: 1.5

## C=C1C[C@@]23CCC4[C@](C)(C(=O)OC5OC(CO)C(O)C(OC6OC(CO)C(O)C(O)C6O)C5OC5OC(CO)C(O)C(O)C5O)CCC[C@@]4(C)[C@@H]2CCC1(OC1OC(CO)C(O)C(OC2OC(COC4OC(CO)C(O)C(O)C4O)C(O)C(O)C2O)C1OC1OC(CO)C(O)C(O)C1O)C3 (stereo partly drawn) [SG104]
[1]; [8]
  sensory comments: as sweet or sweeter than 200 ppm Reb M, more rounded sweetness, enhanced sugar quality effects (sensations reminiscent of sucrose, vanilla), “fuller” feeling
[1]
  summary of sensory evaluation: good sole sweeteners
[2]; [9]
  sensory comments: As sweet as Reb M, very sucrosey compared to Reb M, a little back end licorice
[3]
  Sucrose equivalent value: 6.5
  relative sweetness scale-sucrose = 1: 260X

## C=C1C[C@@]23CC[C@H]4[C@@](C)(CCC[C@@]4(C)C(=O)O[C@@H]4O[C@H](CO)[C@@H](O)[C@H](O)[C@H]4O[C@@H]4O[C@H](CO)[C@@H](O)[C@H](O)[C@H]4O)[C@@H]2CC[C@]1(O[C@@H]1O[C@H](CO)[C@@H](O)[C@H](O[C@@H]2O[C@H](CO)[C@@H](O)[C@H](O)[C@H]2O)[C@H]1O[C@@H]1O[C@H](CO)[C@@H](O)[C@H](O)[C@H]1O)C3 [Reb D, rebaudioside D]
[4]; 0.08% in deionized water, clear solution without precipitates = soluble
  instantaneous solubility (soluble/insoluble): insoluble
[4]; 0.10% in deionized water
  instantaneous solubility (soluble/insoluble): insoluble
[4]; 0.15% in deionized water
  instantaneous solubility (soluble/insoluble): insoluble
[4]; 0.20% in deionized water
  instantaneous solubility (soluble/insoluble): insoluble
[4]
  instantaneous solubility: < 0.08%
[4]; listed as rebaudioside D
  instantaneous solubility: less than 0.08%
[5]; 0.08%
  equilibrium solubility (soluble/insoluble): soluble
[5]; 0.10%
  equilibrium solubility (soluble/insoluble): insoluble
[5]; 0.15%
  equilibrium solubility (soluble/insoluble): insoluble
[5]; 0.20%
  equilibrium solubility (soluble/insoluble): insoluble
[5]
  equilibrium solubility: 0.08%
[6]
  taste properties: slow onset of sweetness and was very clean
  times sweeter than sucrose: 200-220 times
[7]
  aqueous solubility: low solubility in water at room temperature

## C=C1C[C@@]23CCC4[C@](C)(C(=O)OC5OC(CO)C(O)C(O)C5OC5OC(CO)C(O)C(O)C5O)CCC[C@@]4(C)[C@@H]2CCC1(OC1OC(COC2OC(CO)C(O)C(O)C2O)C(O)C(OC2OC(CO)C(O)C(O)C2O)C1OC1OC(CO)C(O)C(O)C1O)C3 (stereo partly drawn) [SG101]
[1]; [8]
  sensory comments: not sweet, astringent, cloying—mouth drying on the tongue
[1]
  summary of sensory evaluation: less sweet than SG103 and SG104
[2]; [9]
  sensory comments: Zero sweetness, seems less than in water, naked tea
[3]; 200 ppm
  SEV: 0.6
[3]; 400 ppm
  SEV: 1.2
[3]; 500 ppm
  SEV: 1.6

## C=C1C[C@@]23CC[C@H]4[C@@](C)(CCC[C@@]4(C)C(=O)O[C@@H]4O[C@H](CO)[C@@H](O)[C@H](O)[C@H]4O)[C@@H]2CC[C@]1(O[C@@H]1O[C@H](CO)[C@@H](O)[C@H](O[C@@H]2O[C@H](CO)[C@@H](O)[C@H](O)[C@H]2O)[C@H]1O[C@@H]1O[C@H](CO)[C@@H](O)[C@H](O)[C@H]1O)C3 [Reb A, rebaudioside A]
[6]
  taste properties: has off-taste issues

## C=C1C[C@@]23CC[C@H]4[C@@](C)(CCC[C@@]4(C)C(=O)O[C@@H]4O[C@H](CO)[C@@H](O)[C@H](O[C@@H]5O[C@H](CO)[C@@H](O)[C@H](O)[C@H]5O)[C@H]4O[C@@H]4O[C@H](CO)[C@@H](O)[C@H](O)[C@H]4O)[C@@H]2CC[C@]1(O[C@@H]1O[C@H](CO)[C@@H](O)[C@H](O[C@@H]2O[C@H](CO)[C@@H](O)[C@H](O)[C@H]2O)[C@H]1O[C@@H]1O[C@H](CO)[C@@H](O)[C@H](O)[C@H]1O)C3 [Reb M, rebaudioside M]
[4]; 0.10% in deionized water
  instantaneous solubility (soluble/insoluble): soluble
[4]; 0.13% in deionized water
  instantaneous solubility (soluble/insoluble): soluble
[4]; 0.20% in deionized water
  instantaneous solubility (soluble/insoluble): insoluble
[4]; 0.30% in deionized water
  instantaneous solubility (soluble/insoluble): insoluble
[4]
  instantaneous solubility: at least 0.13%
[4]; listed as rebaudioside M
  instantaneous solubility: about 0.13%
[5]; 0.10%
  equilibrium solubility (soluble/insoluble): soluble
[5]; 0.13%
  equilibrium solubility (soluble/insoluble): soluble
[5]; 0.20%
  equilibrium solubility (soluble/insoluble): soluble
[5]; 0.30%
  equilibrium solubility (soluble/insoluble): insoluble
[5]
  equilibrium solubility: at least 0.2%
[5]; listed as rebaudioside M
  equilibrium solubility: about 0.2%
[1]; [8]
  sensory comments: Typical mid-sweet for Reb M, fairly well rounded, quick rise, some tailing, some bitter
[1]; Test A, 400 ppm in water
  sensory comments: Higher sweet, faster onset than 200 ppm, cotton candy sweetness—skews to HFCS longer linger, sharper bitterness—but not oppressing sweetness
[1]; Test B, Reb M alone in water, concentration not stated (200-398 ppm prepared)
  sensory comments: clean, sweet, spiky sweetness
[2]; Reb M alone in tea, concentration not stated (200.4 and 401.0 ppm prepared)
  sensory comments: Nice subtle sweetness, feels like sugar, but with long linger very good
[6]
  taste properties: has higher sweetness intensity and is more potent than other steviol glycosides
[7]
  aqueous solubility: poor aqueous solubility and dissolution qualities in beverage formulations
